target: indoleamine 2,3-dioxygenase (IDO1) (Homo sapiens, UniProt P14902); experiment: PBMC IDO1 assay (kynurenine by mass spectrometry); assay type: cell-based; conditions: human PBMC stimulated with IFN-γ and LPS, 2 days incubation, kynurenine detected by mass spectrometry; read-out: IDO1 PBMC pIC50 (converted)
Sequence (P14902 whole entry): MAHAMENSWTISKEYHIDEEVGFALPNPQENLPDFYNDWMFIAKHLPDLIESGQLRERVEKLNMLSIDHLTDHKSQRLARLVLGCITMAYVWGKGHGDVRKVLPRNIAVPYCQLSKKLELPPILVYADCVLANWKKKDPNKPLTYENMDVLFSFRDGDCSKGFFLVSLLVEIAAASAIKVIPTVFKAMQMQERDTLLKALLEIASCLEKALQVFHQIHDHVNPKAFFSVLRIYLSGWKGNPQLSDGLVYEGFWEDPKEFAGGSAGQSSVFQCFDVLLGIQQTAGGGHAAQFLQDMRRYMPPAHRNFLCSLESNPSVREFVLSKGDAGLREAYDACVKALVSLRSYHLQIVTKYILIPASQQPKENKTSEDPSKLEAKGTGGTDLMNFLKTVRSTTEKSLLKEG

SMILES	IC50 [µM]
COC(=O)N1CCC2(CC1)C[C@H](NC(=O)c1cccc3cc[nH]c13)c1cc(Br)ccc1O2 [Example 4, (S)-methyl 6-bromo-4-(1H-indole-7-carboxamido)spiro[chroman-2,4′-piperidine]-1′-carboxylate]	0.00398
COC(=O)N1CCC2(CC1)C[C@H](NC(=O)c1cccc3cn[nH]c13)c1cc(Br)ccc1O2 [Example 5, (S)-methyl 6-bromo-4-(1H-indazole-7-carboxamido)spiro[chroman-2,4′-piperidine]-1′-carboxylate]	0.00501
CCOC(=O)N1CCC2(CC1)CC(NC(=O)c1cccc3cn[nH]c13)c1nc(OC)ccc1O2 (centres unmarked) [Example 9, ethyl 4′-(1H-indazole-7-carboxamido)-6′-methoxy-3′,4′-dihydrospiro[piperidine-4,2′-pyrano[3,2-b]pyridine]-1-carboxylate]	0.01
CCOC(=O)N1CCC2(CC1)C[C@H](NC(=O)c1ccccc1N)c1cc(Br)ccc1O2 [Example 10, (S)-ethyl 4-(2-aminobenzamido)-6-bromospiro[chroman-2,4′-piperidine]-1′-carboxylate]	0.0126
CCOC(=O)N1CCC2(CC1)CC(NC(=O)c1cccnc1)c1cc(Br)ccc1O2 (centres unmarked) [Example 21, ethyl 6-bromo-4-(nicotinamido)spiro[chroman-2,4′-piperidine]-1′-carboxylate]	0.0794
CCOC(=O)N1CCC2(CC1)CC(NC(=O)c1cccc3cn[nH]c13)c1cc(Br)cnc1O2 (centres unmarked) [Example 23, ethyl 6′-bromo-4′-(1H-indazole-7-carboxamido)-3′,4′-dihydrospiro[piperidine-4,2′-pyrano[2,3-b]pyridine]-1-carboxylate]	0.0794
CCOC(=O)N1CCC2(CC1)C[C@H](NC(=O)c1cccc(O)n1)c1cc(Br)ccc1O2 [Example 25, (S)-ethyl 6-bromo-4-(6-hydroxypicolinamido)spiro[chroman-2,4′-piperidine]-1′-carboxylate]	0.1
CCOC(=O)N1CCC2(CC1)CC(NC(=O)c1cncc3cn[nH]c13)c1ccccc1O2 (centres unmarked) [Example 26, ethyl 4-(1H-pyrazolo[4,3-c]pyridine-7-carboxamido)spiro[chroman-2,4′-piperidine]-1′-carboxylate]	0.126

Next, values leading:

IC50 [µM]	SMILES
0.00501	CCOC(=O)N1CCC2(CC1)C[C@H](NC(=O)c1cccc3[nH]ccc13)c1cc(Br)ccc1O2 [Example 8, (S)-ethyl 6-bromo-4-(1H-indole-4-carboxamido)spiro[chroman-2,4′-piperidine]-1′-carboxylate]
0.0316	CCOC(=O)N1CCC2(CC1)CC(NC(=O)c1cccc3cn[nH]c13)c1cc(Br)ncc1O2 (centres unmarked) [Example 16, ethyl 6′-bromo-4′-(1H-indazole-7-carboxamido)-3′,4′-dihydrospiro[piperidine-4,2′-pyrano[2,3-c]pyridine]-1-carboxylate]
0.0398	CCOC(=O)N1CCC2(CC1)CC(NC(=O)c1cccc3cc[nH]c13)c1c(Br)cccc1O2 (centres unmarked) [Example 17, ethyl 5-bromo-4-(1H-indole-7-carboxamido)spiro[chroman-2,4′-piperidine]-1′-carboxylate]
0.0398	CCOC(=O)N1CCC2(CC1)CC(NC(=O)c1cccc3cn[nH]c13)c1cc(CO)ccc1O2 (centres unmarked) [Example 18, ethyl 6-(hydroxymethyl)-4-(1H-indazole-7-carboxamido)spiro[chroman-2,4′-piperidine]-1′-carboxylate]
0.0794	CCCC(=O)N1CCC2(CC1)C[C@H](NC(=O)c1cccc3cn[nH]c13)c1cc(Br)ccc1O2 [Example 22, (S)—N-(6-bromo-1′-butyrylspiro[chroman-2,4′-piperidin]-4-yl)-1H-indazole-7-carboxamide]
0.1	CCOC(=O)N1CCC2(CC1)CC(NC(=O)c1cccc3cc[nH]c13)c1ccc(Br)cc1O2 (centres unmarked) [Example 24, ethyl 7-bromo-4-(1H-indole-7-carboxamido)spiro[chroman-2,4′-piperidine]-1′-carboxylate]
